Assay [1] has as its system GPR83 and GPR83del, with or without HA tag (HEK293 cells; wild-type HEK293 as comparison). Nature of the assay: Competitive radioligand binding assay, GPR83. Details: species or system human. To be noted: pH 7.4, 2 h; for radioligand binding signal: 100,000 cpm 125I-labelled peptide, wild-type HEK293 and HEK293 expressing full-length or deletion variant GPR83, with or without HA tag. The text has this: One of the most proven methods for quantitatively analyzing the interaction of biomolecules is the competitive radioligand binding assay. […] To safeguard against possible interference of the added Tyr with ligand–receptor binding, two peptides were created and are as follows: one with the Tyr on the aminoterminal end (Tyr-PEN), and the other with Tyr added on the carboxyterminus (PEN-Tyr). Radiolabeled ^125I-PEN-Tyr and ^125I-Tyr-PEN were then used on wild-type HEK293 cells and HEK293 cells expressing various forms of GPR83 (full-length or deletion variant, with or without HA tag) in competition with different concentrations of natural PEN or Tyr-PEN, ranging from 1 pM to 1 µM.
Figure 5 HEK293 wild-type cells and HEK293 cells overexpressing various forms of GPR83 were used in radioligand binding assays with two different radioactively labeled PEN peptides: [^125I]-Tyr-PEN or [^125I]-PEN-Tyr. (A) Radioligand [^125I]-PEN-Tyr in competition with unlabeled wild-type PEN. (B) Radioligand [^125I]-Tyr-PEN in competition with unlabeled wild-type PEN. (C) Radioligand [^125I]-PEN-Tyr in competition with unlabeled wild-type PEN. (D) Radioligand [^125I]-Tyr-PEN in competition with Tyr-PEN. […]
Two variants of human PENs were utilized for radioiodination in this study: one with a tyrosine added at the aminoterminal end (Tyr-PEN: […]-NH2), and one with an additional tyrosine attached to the carboxyterminal end (PEN-Tyr: […]-NH2). Both were labelled with ^125I using the chloramine-T method. Chloramine-T and sodium metabisulfite solutions were freshly prepared in water. For labelling, 10 µL of peptide (stock 1 mM) with 15 µL of sodium phosphate buffer (0.5 M, pH 7.6) was mixed with 37 MBq carrier-free Na^125I (NEZ033L010MC, Perkin Elmer, Waltham, MA, USA). A 4 μL volume of chloramine T (1 mg/mL) was added to start the reaction, and after 30 s, 4 μL sodium metabisulfite (2 mg/mL) was added to stop the iodination. The labeled radioactive peptide was separated from unlabeled peptide with HPLC purification (Agilent ZORBAX 300 Extend-C18 column) using a gradient from 20–50% acetonitrile (+0.1% TFA) against water (+0.1% TFA) for 20 min. To determine the retention time of the radioactive peptide, 1–2 µL of the reaction mixture was analyzed before the purification run. The fraction containing the radiolabeled peptide peak was then collected, diluted with binding buffer to prevent radioautolysis, aliquoted, and stored at −80 °C.
4.10. Radioligand Binding Assay
For competitive radioligand binding assay, approximately 50,000 cells/well were seeded in a 96-well plate incubated overnight at 37 °C. Next day, cells were incubated in binding buffer (50 mM HEPES pH 7.4, 5 mM MgCl2, 1 mM CaCl2, 0.5% BSA, cOmplete protease inhibitors) containing 100,000 counts per minute of ^125I-labelled peptide, with increasing concentrations of unlabeled peptide. After 2 h of incubation, cells were washed for 2–3 times with ice-cold washing buffer (50 mM Tris-HCl, pH 7.4, 125 mM NaCl, 0.05% BSA) and lysed with 1 N NaOH (80 µL/well). The lysed cells were transferred to vials and measured in a gamma counter (Wallac 1470 Wizard, Perkin Elmer, Waltham, MA, USA). Obtained cpm values were plotted with GraphPad Prism 7, and the data were fitted using nonlinear regression (one site—fit Ki, one site—fit logIC50).

The subject of assay [2] is GPR83 and GPR83del (HEK293 and U2OS clones; wild-type cells as comparison). Nature of the assay: Ligand-dependent cAMP formation. Conditions: 1 µM PEN or 50 µM forskolin, GPR83-overexpressing clones and wild-type HEK293 and U2OS cells, 10 min incubation, LANCE Ultra cAMP kit, TR-FRET competition, duplicate. In kind it is cell-based, human. The procedure:
Production of cyclic adenosine monophosphate (cAMP) is a hallmark of GPCRs signaling via the Gs-induced pathway. To investigate the potential of PEN to stimulate cAMP production mediated by GPR83, levels of the second messenger were determined after incubation with PEN of various GPR83-overexpressing clones as well as wild-type HEK293 and U2OS cells.
Figure 3 Analysis of ligand-dependent, GPR83-mediated cAMP production. (A) Wild-type HEK293 and U2OS cells as well as various clones with confirmed overexpression of either GPR83 or the deletion variant GPR83del (both ± HA tag) were incubated with either buffer, 1 µM PEN, or 50 µM forskolin. (B) Selected GPR83-overexpressing HEK293 clones were assayed for cAMP production using different concentrations of PEN. (C) Selected GPR83-overexpressing U2OS clones were assayed for cAMP production using different concentrations of PEN.
To measure intracellular cAMP production, the LANCE Ultra cAMP kit (Perkin Elmer) was used according to the manufacturer’s instructions. The day before the experiment, cells were seeded onto a 96-well plate with approximately 80% confluence. After 16–24 h, the medium was removed, and 100 μL/well of serum-free medium was added, followed by a 3 h incubation. Thereafter, medium was removed, and 40 μL of ligand dissolved in cAMP stimulation buffer was pipetted onto cells, then incubated for 10 min. The ligands used were pipetted in duplicate. For concentration–response curves, serial dilutions were carried out from the stock solutions of 1 mM to create a concentration range from 1 µM to 30 pM. As controls, 4 wells were treated with buffer only (negative control) and 4 wells with 50 μM forskolin (positive control). After a 10 min incubation, 10 μL of a 0.5% Triton-X 100 solution in PBS was added to each well. To lyse cells, the plate was shaken on a Vibramax 100 Shaker (Heidolph, Kelheim, Germany) (750 rpm) at room temperature for 10 min. A 10 μL volume of the cell lysates were transferred into a white 384 well plate (ProxiPlate, PerkinElmer). A 5 μL volume of the Europium-cAMP tracer (1 to 50 dilution of Eu-tracer stock in cAMP detection buffer) was added to each well. Next, 5 μL of the ULight-anti-cAMP solution (1 to 150 dilution of ULight-tracer stock in cAMP detection buffer) was added to each well. After a 1 h incubation period at room temperature in the dark, the TR-FRET signal was measured using an EnVision 2103 Multilabel Reader (Perkin Elmer).

The test system of assay [3] is ERK1/2 phosphorylation in HEK293 cells overexpressing GPR83 or GPR83del. Nature of the assay: ERK1/2 phosphorylation (immunoblot), GPR83 cells. In kind it is cell-based, human. To be noted: 15 min; for phosphorylation of ERK1/2: 10 µM PEN #1, 100 ng/mL EGF or 200 nM PMA, HEK293 overexpressing GPR83 or GPR83del as well as wild-type HEK293, n = 2 independent experiments. The text has this: Apart from G protein-mediated second messenger signaling via Ca^2+ and cAMP, GPCR stimulation may also lead to activation of β-arrestin and phosphorylation of extracellular signal-regulated kinases 1/2 (ERK1/2). Immunoblot analysis was employed to investigate ligand-dependent phosphorylation of ERK1/2 in HEK293 cells overexpressing GPR83 or the deletion variant GPR83del as well as in wild-type HEK293 cells.
Figure 4 Ligand-dependent phosphorylation of ERK1/2 and β-arrestin (TANGO) assay. (A) Immunoblot detection of phosphorylated (upper blot) and total (lower blot) ERK1/2 in lysates of HEK293 wild-type cells and in HEK293 cells overexpressing GPR83 or GPR83del. (B) Quantification (mean ± SD of n = 2 independent experiments) of chemiluminescent readout of the immunoblots shown in (A). (C) TANGO assay for ligand-induced β-arrestin activity in HTLA cells overexpressing GPR83 (relative light units, RLU). (D) TANGO assay for ligand-induced β-arrestin activity in HTLA cells overexpressing bradykinin receptor BDKBR2.
4.7. ERK1/2 Phosphorylation Assay
Effects of GPCR ligands on MAPK signaling were assessed with Western blot analysis of lysates from stimulated cells. The ERK1/2 activation assay was performed as described before. Briefly, 50,000 cells per well were seeded onto adherent 6-well plates and cultured until cells were 80% confluent. After incubation with ligands (10 µM PEN #1 and 100 ng/mL EGF or 200 nM PMA in 0.1% FCS/DMEM) for 15 min, cells were lysed using 200 µL/well cell lysis buffer (100 mM Tris-HCl pH 8.8, 1% SDS) and protease inhibitors (cOmplete, Roche, Basel, Switzerland) on ice for one hour. Immunolabeling was realized using the rabbit monoclonal primary antibody anti-phospho-ERK1/2 Thr^202/Tyr^204 (#4370, Cell Signaling Technologies, Danvers, MA, USA, 1:2000), or anti-total ERK1/2 (#05-1152; Millipore, Burlington, VT, USA; 1:2000), respectively. Blots were analyzed using densitometric quantification using Image Lab Software v4.1 (Bio-Rad).

Consider “YAADHDVGSELPPEGVLGALLRV-NH2 [Tyr-PEN, human PEN with a tyrosine added at the aminoterminal end]”, for which the “concentration-dependent displacement of radioligand” value in assay [1] (unlabeled peptide 1 pM to 1 µM versus 125I-PEN-Tyr or 125I-Tyr-PEN, HEK293 wild-type and GPR83 / GPR83del with or without HA tag) is given as “neither of these different assay conditions led to a PEN-GPR83 binding signal above background or a concentration-dependent displacement of the radioligand”.
For “^125I-Tyr-PEN: Tyr-PEN labelled with 125I using the chloramine-T method”, the radioligand binding signal result in assay [1] is “neither of these different assay conditions led to a PEN-GPR83 binding signal above background”.
For `C=C[C@@]1(C)CC(=O)[C@]2(O)[C@@]3(C)[C@@H](O)CCC(C)(C)[C@@H]3[C@H](O)[C@H](OC(C)=O)[C@@]2(C)O1` [forskolin, reference compound], the figures for the cAMP levels entry in assay [2] and in assay [2] (listed as Forskolin) were “strongly increased cAMP levels” and “strong induction of intracellular cAMP”, respectively.
On to `CCCCCCCCCCCCCC(=O)O[C@@H]1[C@@H](C)[C@@]2(O)[C@@H](C=C(CO)C[C@]3(O)C(=O)C(C)=C[C@@H]23)[C@@H]2C(C)(C)[C@]12OC(C)=O` [PMA, phorbol-12-myristate-13-acetate, reference compound], for which, in assay [3], the “phosphorylation of ERK1/2” value is listed as “substantially induced phosphorylation of ERK1/2”.
“^125I-PEN-Tyr: PEN-Tyr labelled with 125I using the chloramine-T method”: in assay [1], the radioligand binding signal entry is listed as “neither of these different assay conditions led to a PEN-GPR83 binding signal above background”.
“EGF: positive control, epithelial growth factor (as printed) (NSDSECPLSHDGYCLHDGVCMYIEALDKYACNCVVGYIGERCQYRDLKWWELR; Epidermal growth factor; UniProt P01133 971-1023, looked up)”: in assay [3] (100 ng/mL EGF, compared with PEN and PMA, n = 2), the “phosphorylation of ERK1/2, rank of response” value was “strongest response”. For the same compound, the “phosphorylation of ERK1/2” value in assay [3] was “substantially induced phosphorylation of ERK1/2”.

These data come from article PMC10606834, “Is the Neuropeptide PEN a Ligand of GPR83?” (International Journal of Molecular Sciences, 2023).
